Data: US20060160753A1, “Micronutrient formulation for cognitive & mood benefits” (Conopco Inc, d/b/a UNILEVER, priority 2004, published 2006)

Test: Urinary PABA recovery (compliance marker), Example 1 trial
Assay type: in vivo, human
Conditions: 24 h urine, all time points; 120 mg PABA per bar, 2 bars daily
Experimental: Subjects were then randomized in a parallel design into two groups to receive either the nutrient test bar or placebo food. Both placebo and test bars contained 120 mg PABA (para-aminobenzoic acid), urinary excretion of which was used as a measure of compliance. Subjects were asked to continue adherence to dietary restrictions described above and to consume the provided test or control product twice daily (once with breakfast and once with evening meal) over the 10 week period.
Fasting venous blood samples were collected at the start of the 10 week intervention phase and on the last week of the intervention period. Serum and EDTA plasma samples were then collected following centrifugation at 3000 rpm for 10 mins at 4° C. and aliquots stored at −80° C. prior to analysis. Twenty-four hour urine samples were also collected at a total of 6 different time points through the study to monitor PABA excretion.
33 subjects completed the study. Compliance was judged to be good as assessed by both subjective and objective measures. Briefly, subjects completed a food diary, in which labels attached to study bars were peeled off and stuck once consumed. The maximum number of bars reported to be missed was 14 during the 12 week (and therefore 168 bar) trial. This was corroborated by the urinary PABA results, which were used as an objective measure of compliance.

PABA recovery: > 85%
Compound: Nc1ccc(C(=O)O)cc1 [PABA, para-aminobenzoic acid]
